Laboratory results as given in patent US20220056037A1 (SPV THERAPEUTICS INC., priority 2018, published 2022).
pIC50: −log10 of the molar value. Read-outs that look alike come from different tables or passages of the source. One block for each compound: values may come before it.

Legend:
Assay in all cases: Inhibition assay, microfluidic LabChip (Nanosyn)
Format in all cases: biochemical
[1] = molecular target: CDK7 CyclinH (Homo sapiens, UniProt P50613);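 further: values are IC50 from a concentration-response series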
Sequence of CDK7 CyclinH (P50613 whole entry): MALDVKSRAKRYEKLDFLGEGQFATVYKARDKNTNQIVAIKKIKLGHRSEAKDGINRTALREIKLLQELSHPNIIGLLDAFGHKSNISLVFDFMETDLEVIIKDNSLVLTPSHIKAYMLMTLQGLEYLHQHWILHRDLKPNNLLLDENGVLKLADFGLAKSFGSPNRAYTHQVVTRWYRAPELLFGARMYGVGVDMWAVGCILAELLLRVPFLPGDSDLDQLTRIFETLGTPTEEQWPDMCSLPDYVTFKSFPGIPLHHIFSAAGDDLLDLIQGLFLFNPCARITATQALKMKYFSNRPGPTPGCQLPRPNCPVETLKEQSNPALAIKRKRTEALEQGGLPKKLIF
Sequence of CDK7 CyclinH (P51946 whole entry partner): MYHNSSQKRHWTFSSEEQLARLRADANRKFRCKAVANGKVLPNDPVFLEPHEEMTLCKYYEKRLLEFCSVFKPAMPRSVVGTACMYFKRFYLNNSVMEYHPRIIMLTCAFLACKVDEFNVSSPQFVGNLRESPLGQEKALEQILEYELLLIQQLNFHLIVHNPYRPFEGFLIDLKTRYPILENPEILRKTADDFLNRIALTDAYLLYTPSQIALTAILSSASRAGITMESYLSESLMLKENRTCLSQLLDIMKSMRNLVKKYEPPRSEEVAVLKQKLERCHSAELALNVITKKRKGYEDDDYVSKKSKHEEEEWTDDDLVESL
Sequence of CDK7 CyclinH (P51948 whole entry partner): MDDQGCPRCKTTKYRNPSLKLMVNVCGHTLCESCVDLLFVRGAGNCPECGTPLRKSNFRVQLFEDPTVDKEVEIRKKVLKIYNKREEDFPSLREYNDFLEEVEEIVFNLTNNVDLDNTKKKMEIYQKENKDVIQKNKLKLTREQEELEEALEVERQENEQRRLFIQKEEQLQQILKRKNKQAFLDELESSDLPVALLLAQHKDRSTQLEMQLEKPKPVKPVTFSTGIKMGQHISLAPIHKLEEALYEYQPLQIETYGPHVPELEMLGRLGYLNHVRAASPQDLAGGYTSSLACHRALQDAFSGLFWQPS
Protocol: (§1) The reaction was terminated by the addition of EDTA. The plates were analyzed using a Caliper LabChip 3000.
(§2) Additional inhibition assays were performed as described above.

[2] = molecular target: T1, CDK2-CYCLINA (Homo sapiens, UniProt P24941);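 further: values are IC50 from a concentration-response series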
T1 construct: purchased Millipore
Protocol: as §1, §2

[3] = molecular target: T2, CDK4-CYCLIND1 (Homo sapiens, UniProt P11802)
T2 construct: purchased Invitrogen
T2 sequence (P11802 whole entry): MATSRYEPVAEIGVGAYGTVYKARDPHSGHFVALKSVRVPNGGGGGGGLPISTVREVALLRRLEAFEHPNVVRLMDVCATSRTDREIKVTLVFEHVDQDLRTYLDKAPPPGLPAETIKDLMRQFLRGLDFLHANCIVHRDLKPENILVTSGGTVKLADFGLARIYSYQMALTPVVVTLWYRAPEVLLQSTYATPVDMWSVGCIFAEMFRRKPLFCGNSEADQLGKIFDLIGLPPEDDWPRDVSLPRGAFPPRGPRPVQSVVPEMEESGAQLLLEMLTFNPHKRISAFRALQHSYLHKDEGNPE
T2 sequence (P24385 whole entry partner): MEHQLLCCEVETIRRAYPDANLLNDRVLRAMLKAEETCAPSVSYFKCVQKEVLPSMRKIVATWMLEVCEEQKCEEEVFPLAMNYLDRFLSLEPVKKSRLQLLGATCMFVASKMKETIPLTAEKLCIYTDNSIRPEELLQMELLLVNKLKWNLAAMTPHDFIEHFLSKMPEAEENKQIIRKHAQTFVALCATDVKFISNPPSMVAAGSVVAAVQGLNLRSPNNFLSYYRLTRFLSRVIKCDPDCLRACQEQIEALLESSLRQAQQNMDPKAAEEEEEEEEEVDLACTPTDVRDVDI
Protocol: as §1, §2

[4] = molecular target: T3, CDK6-CYCLIND3 (Homo sapiens, UniProt Q00534)
T3 construct: purchased Carna
T3 sequence (Q00534 whole entry): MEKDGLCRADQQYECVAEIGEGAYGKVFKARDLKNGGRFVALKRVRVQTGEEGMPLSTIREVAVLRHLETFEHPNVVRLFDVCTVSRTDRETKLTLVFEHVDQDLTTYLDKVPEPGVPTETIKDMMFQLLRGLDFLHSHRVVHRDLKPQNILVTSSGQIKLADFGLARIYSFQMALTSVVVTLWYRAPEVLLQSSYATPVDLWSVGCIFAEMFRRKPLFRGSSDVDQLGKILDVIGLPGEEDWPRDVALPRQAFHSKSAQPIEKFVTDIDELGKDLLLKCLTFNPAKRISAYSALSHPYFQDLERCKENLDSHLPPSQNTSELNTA
T3 sequence (P30281 whole entry partner): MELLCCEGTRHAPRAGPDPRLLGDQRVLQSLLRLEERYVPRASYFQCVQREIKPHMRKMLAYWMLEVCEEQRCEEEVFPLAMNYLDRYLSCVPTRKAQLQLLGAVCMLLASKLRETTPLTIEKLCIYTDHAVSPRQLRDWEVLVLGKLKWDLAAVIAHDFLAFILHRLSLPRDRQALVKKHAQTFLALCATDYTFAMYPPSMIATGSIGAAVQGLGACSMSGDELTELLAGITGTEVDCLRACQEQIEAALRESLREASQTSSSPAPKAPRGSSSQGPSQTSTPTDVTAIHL
Protocol: as §1, §2

[5] = molecular target: T4, CDK9-CYCLINT1 (Homo sapiens, UniProt P50750); details: Table 3a;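 further: values are IC50 from a concentration-response series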
T4 construct: purchased Carna
T4 sequence (P50750 whole entry): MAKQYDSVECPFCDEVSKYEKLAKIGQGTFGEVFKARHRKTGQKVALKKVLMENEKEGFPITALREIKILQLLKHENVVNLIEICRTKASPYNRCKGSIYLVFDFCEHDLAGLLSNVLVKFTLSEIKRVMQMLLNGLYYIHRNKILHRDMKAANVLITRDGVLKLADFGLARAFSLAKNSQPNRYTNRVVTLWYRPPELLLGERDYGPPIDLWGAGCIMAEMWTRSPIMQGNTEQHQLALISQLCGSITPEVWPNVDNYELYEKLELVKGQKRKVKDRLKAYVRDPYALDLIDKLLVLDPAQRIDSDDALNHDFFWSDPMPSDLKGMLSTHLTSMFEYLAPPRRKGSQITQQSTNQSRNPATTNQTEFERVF
T4 sequence (O60563 whole entry partner): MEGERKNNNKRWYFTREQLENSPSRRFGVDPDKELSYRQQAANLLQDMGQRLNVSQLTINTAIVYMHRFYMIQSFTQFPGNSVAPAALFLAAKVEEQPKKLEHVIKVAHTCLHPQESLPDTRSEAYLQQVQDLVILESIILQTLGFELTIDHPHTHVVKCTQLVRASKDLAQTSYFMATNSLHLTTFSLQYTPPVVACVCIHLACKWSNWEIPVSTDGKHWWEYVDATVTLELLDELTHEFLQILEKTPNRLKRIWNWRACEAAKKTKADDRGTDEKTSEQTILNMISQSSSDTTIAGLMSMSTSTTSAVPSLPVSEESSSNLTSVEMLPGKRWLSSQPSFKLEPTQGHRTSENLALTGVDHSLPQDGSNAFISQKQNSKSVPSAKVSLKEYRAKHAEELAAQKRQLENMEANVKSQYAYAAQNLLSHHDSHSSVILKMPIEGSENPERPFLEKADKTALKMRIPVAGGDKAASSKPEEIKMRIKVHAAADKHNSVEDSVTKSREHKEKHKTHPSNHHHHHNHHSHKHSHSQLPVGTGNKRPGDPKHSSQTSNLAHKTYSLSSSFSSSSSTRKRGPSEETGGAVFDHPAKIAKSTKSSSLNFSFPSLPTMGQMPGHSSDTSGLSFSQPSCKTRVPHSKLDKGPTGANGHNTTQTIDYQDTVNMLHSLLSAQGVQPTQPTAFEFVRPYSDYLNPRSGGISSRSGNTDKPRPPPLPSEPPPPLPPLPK
Protocol: as §1, §2

[6] = Table 3a, read-out: CDK4 CyclinD1 IC50
[7] = Table 3b, read-out: CDK4 CyclinD1 IC50
[8] = Table 3a, read-out: CDK6 CyclinD3 IC50
[9] = Table 3b, read-out: CDK6 CyclinD3 IC50
[10] = Table 2, ATP 200 μM, read-out: CDK4 IC50
[11] = Table 2, ATP 300 μM, read-out: CDK6 IC50

Compound: CN(C)C(=O)c1cc2cnc(Nc3ccc(N4CCNCC4)c(F)c3)nc2n1C12CC(C1)C2 [Compound A85, 7-(bicyclo[1.1.1]pentan-1-yl)-2-((3-fluoro-4-(piperazin-1-yl)phenyl)amino)-N,N-dimethyl-7H-pyrrolo[2,3-d]pyrimidine-6-carboxamide]
pIC50 ([1]; Table 3a): 5.94
pIC50 ([1]; Table 3b): 5.94
pIC50 ([2]; Table 3a): 6.79
pIC50 ([2]; Table 3b): 6.79

Compound: CN(C)C(=O)c1cc2cnc(Nc3ccc(C4=CCNCC4)cn3)nc2n1C12CC(C1)C2 [Compound A87, 7-(bicyclo[1.1.1]pentan-1-yl)-N,N-dimethyl-2-((1′,2′,3′,6′-tetrahydro-[3,4′-bipyridin]-6-yl)amino)-7H-pyrrolo[2,3-d]pyrimidine-6-carboxamide]
pIC50 [3, 6]: 7.60
pIC50 [3, 7]: 7.60
pIC50 [4, 8]: 7.70
pIC50 [4, 9]: 7.70
pIC50 ([1]; Table 3a): < 4.00
pIC50 ([1]; Table 3b): < 4.00
pIC50 [5]: 6.26
pIC50 ([2]; Table 3a): 4.30
pIC50 ([2]; Table 3b): 4.30

Compound: CN(C)C(=O)c1cc2cnc(Nc3ccc(N4CCNCC4)cn3)nc2n1C12CC(C1)C2 [Compound A86, 7-(bicyclo[1.1.1]pentan-1-yl)-N,N-dimethyl-2-((5-(piperazin-1-yl)pyridin-2-yl)amino)-7H-pyrrolo[2,3-d]pyrimidine-6-carboxamide]
pIC50 [3, 6]: 7.80
pIC50 [3, 7]: 7.80
pIC50 [4, 8]: 7.70
pIC50 [4, 9]: 7.70
pIC50 ([1]; Table 3a): 4.56
pIC50 ([1]; Table 3b): 4.56
pIC50 [5]: 6.17
pIC50 ([2]; Table 3a): 4.72
pIC50 ([2]; Table 3b): 4.72

Compound: COc1cc(Nc2ncc3c(F)c(C(=O)N(C)C)n(C4CCCC4)c3n2)ccc1N1CCN(C(C)C)CC1 [Compound A35, 7-cyclopentyl-5-fluoro-2-((4-(4-isopropylpiperazin-1-yl)-3-methoxyphenyl)amino)-N,N-dimethyl-7H-pyrrolo[2,3-d]pyrimidine-6-carboxamide]
pIC50 [3, 10]: 7.36
pIC50 [4, 11]: 6.66

Compound: CN(C)C(=O)c1cc2cnc(Nc3ccc(N4CCNCC4)cc3)nc2n1C12CC(C1)C2 [Compound A83, 7-(bicyclo[1.1.1]pentan-1-yl)-N,N-dimethyl-2-((4-(piperazin-1-yl)phenyl)amino)-7H-pyrrolo[2,3-d]pyrimidine-6-carboxamide]
pIC50 [3, 6]: 8.17
pIC50 [3, 7]: 8.17
pIC50 [4, 8]: 7.82
pIC50 [4, 9]: 7.82
pIC50 ([1]; Table 3a): 5.47
pIC50 ([1]; Table 3b): 5.47
pIC50 [5]: 7.90
pIC50 ([2]; Table 3a): 6.54
pIC50 ([2]; Table 3b): 6.54

Compound: CN(C)C(=O)c1c(F)c2cnc(Nc3ccc(OCCN4CCCC4)nc3)nc2n1C1CCCC1 [Compound A26, 7-cyclopentyl-5-fluoro-N,N-dimethyl-2-((6-(2-(pyrrolidin-1-yl)ethoxy)pyridin-3-yl)amino)-7H-pyrrolo[2,3-d]pyrimidine-6-carboxamide]
pIC50 [3, 10]: 7.41
pIC50 [4, 11]: 6.92

Compound: CC(C)N1CC=C(c2ccc(Nc3ncc4c(F)c(C(=O)N(C)C)n(C5CCCC5)c4n3)nc2)CC1 [Compound A21, 7-cyclopentyl-5-fluoro-2-((1′-isopropyl-1′,2′,3′,6′-tetrahydro-[3,4′-bipyridin]-6-yl)amino)-N,N-dimethyl-7H-pyrrolo[2,3-d]pyrimidine-6-carboxamide]
pIC50 [3, 10]: 7.29
pIC50 [4, 11]: 7.01

Compound: CN(C)C(=O)c1cc2cnc(NC3CCN(S(C)(=O)=O)CC3)nc2n1C12CC(C1)C2 [Compound A75, 7-(bicyclo[1.1.1]pentan-1-yl)-N,N-dimethyl-2-((1-(methylsulfonyl)piperidin-4-yl)amino)-7H-pyrrolo[2,3-d]pyrimidine-6-carboxamide]
pIC50 ([1]; Table 3a): 5.09
pIC50 ([1]; Table 3b): 5.09
pIC50 [5]: 7.94

Compound: CN(C)CCOc1ccc(Nc2ncc3c(F)c(C(=O)N(C)C)n(C4CCCC4)c3n2)nc1 [Compound A3, 7-cyclopentyl-2-((5-(2-(dimethylamino)ethoxy)pyridin-2-yl)amino)-5-fluoro-N,N-dimethyl-7H-pyrrolo[2,3-d]pyrimidine-6-carboxamide]
pIC50 [3, 10]: 7.32
pIC50 [4, 11]: 7.19

Compound: CN(C)C(=O)c1cc2cnc(Nc3ccc(N4CC5(CNC5)C4)cc3)nc2n1C12CC(C1)C2 [Compound A48, 2-((4-(2,6-diazaspiro[3.3]heptan-2-yl)phenyl)amino)-7-(bicyclo[1.1.1]pentan-1-yl)-N,N-dimethyl-7H-pyrrolo[2,3-d]pyrimidine-6-carboxamide]
pIC50 [3, 6]: 7.79
pIC50 [3, 7]: 7.79
pIC50 [4, 8]: 7.36
pIC50 [4, 9]: 7.36
pIC50 ([1]; Table 3a): 5.31
pIC50 ([1]; Table 3b): 5.31
pIC50 [5]: 7.83
pIC50 ([2]; Table 3a): 6.18
pIC50 ([2]; Table 3b): 6.18

Compound: CN(C)CCOc1ccc(Nc2ncc3cc(C(=O)N(C)C)n(C45CC(C4)C5)c3n2)nc1 [Compound A15, 7-(bicyclo[1.1.1]pentan-1-yl)-2-((5-(2-(dimethylamino)ethoxy)pyridin-2-yl)amino)-N,N-dimethyl-7H-pyrrolo[2,3-d]pyrimidine-6-carboxamide]
pIC50 [3, 10]: 7.50
pIC50 [4, 11]: 7.62

Compound: CN(C)C(=O)c1c(F)c2cnc(Nc3ccc(N4CCNCC4)cn3)nc2n1C1CCCC1 [Compound A1, 7-cyclopentyl-5-fluoro-N,N-dimethyl-2-((5-(piperazin-1-yl)pyridin-2-yl)amino)-7H-pyrrolo[2,3-d]pyrimidine-6-carboxamide]
pIC50 [3, 10]: 7.41
pIC50 [4, 11]: 7.27

Compound: CN(C)C(=O)c1c(F)c2cnc(Nc3ccc(N4CCN5CCC4CC5)cn3)nc2n1C1CCCC1 [Compound A10, 2-((5-(1,4-diazabicyclo[3.2.2]nonan-4-yl)pyridin-2-yl)amino)-7-cyclopentyl-5-fluoro-N,N-dimethyl-7H-pyrrolo[2,3-d]pyrimidine-6-carboxamide]
pIC50 [3, 10]: 7.52
pIC50 [4, 11]: 7.30

Compound: CN(C)C(=O)c1c(F)c2cnc(Nc3cc(C(F)(F)F)c(N4CCNCC4)cn3)nc2n1C1CCCC1 [Compound A25, 7-cyclopentyl-5-fluoro-N,N-dimethyl-2-((5-(piperazin-1-yl)-4-(trifluoromethyl)pyridin-2-yl)amino)-7H-pyrrolo[2,3-d]pyrimidine-6-carboxamide]
pIC50 [3, 10]: 5.64
pIC50 [4, 11]: 5.31

Compound: CN1CCN(c2ccc(Nc3ncc4c(F)c(C(=O)N(C)C)n(C5CCCC5)c4n3)cn2)CC1 [Compound A28, 7-cyclopentyl-5-fluoro-N,N-dimethyl-2-((6-(4-methylpiperazin-1-yl)pyridin-3-yl)amino)-7H-pyrrolo[2,3-d]pyrimidine-6-carboxamide]
pIC50 [3, 10]: 7.58
pIC50 [4, 11]: 7.09

The remaining compounds from weak to strong by pIC50 [3, 10], led by results:

pIC50 [3, 10]: 7.58
pIC50 [4, 11]: 6.99
Compound: Cc1cc(Nc2ncc3c(F)c(C(=O)N(C)C)n(C4CCCC4)c3n2)ccc1N1CCN(C(C)C)CC1 [Compound A34, 7-cyclopentyl-5-fluoro-2-((4-(4-isopropylpiperazin-1-yl)-3-methylphenyl)amino)-N,N-dimethyl-7H-pyrrolo[2,3-d]pyrimidine-6-carboxamide]

pIC50 [3, 10]: 7.71
pIC50 [4, 11]: 7.30
Compound: CN(C)C(=O)c1cc2cnc(Nc3ccc(OCCN4CCCC4)cn3)nc2n1C1CCCC1 [Compound A5, 7-cyclopentyl-N,N-dimethyl-2-((5-(2-(pyrrolidin-1-yl)ethoxy)pyridin-2-yl)amino)-7H-pyrrolo[2,3-d]pyrimidine-6-carboxamide]

pIC50 [3, 10]: 7.72
pIC50 [4, 11]: 7.46
Compound: CN(C)CCOc1ccc(Nc2ncc3cc(C(=O)N(C)C)n(C4CCCC4)c3n2)nc1 [Compound A4, 7-cyclopentyl-2-((5-(2-(dimethylamino)ethoxy)pyridin-2-yl)amino)-N,N-dimethyl-7H-pyrrolo[2,3-d]pyrimidine-6-carboxamide]

pIC50 [3, 10]: 7.81
pIC50 [4, 11]: 7.63
Compound: CN1CCN(c2ccc(Nc3ncc4cc(C(=O)N(C)C)n(C56CC(C5)C6)c4n3)nc2)CC1 [Compound A38, 7-(bicyclo[1.1.1]pentan-1-yl)-N,N-dimethyl-2-((5-(4-methylpiperazin-1-yl)pyridin-2-yl)amino)-7H-pyrrolo[2,3-d]pyrimidine-6-carboxamide]

pIC50 [3, 10]: 7.90
pIC50 [4, 11]: 7.55
Compound: CN(C)C(=O)c1cc2cnc(Nc3ccc(N4CC5(CNC5)C4)nc3)nc2n1C12CC(C1)C2 [Compound A46, 2-((6-(2,6-diazaspiro[3.3]heptan-2-yl)pyridin-3-yl)amino)-7-(bicyclo[1.1.1]pentan-1-yl)-N,N-dimethyl-7H-pyrrolo[2,3-d]pyrimidine-6-carboxamide]

pIC50 [3, 10]: 7.97
pIC50 [4, 11]: 7.50
Compound: CN1CCN(c2ccc(Nc3ncc4cc(C(=O)N(C)C)n(C56CC(C5)C6)c4n3)cc2F)CC1 [Compound A30, 7-(bicyclo[1.1.1]pentan-1-yl)-2-((3-fluoro-4-(4-methylpiperazin-1-yl)phenyl)amino)-N,N-dimethyl-7H-pyrrolo[2,3-d]pyrimidine-6-carboxamide]

pIC50 [3, 10]: 8.05
pIC50 [4, 11]: 7.47
Compound: Cc1cc(Nc2ncc3cc(C(=O)N(C)C)n(C45CC(C4)C5)c3n2)ccc1N1CCN(C(C)C)CC1 [Compound A31, 7-(bicyclo[1.1.1]pentan-1-yl)-2-((4-(4-isopropylpiperazin-1-yl)-3-methylphenyl)amino)-N,N-dimethyl-7H-pyrrolo[2,3-d]pyrimidine-6-carboxamide]

pIC50 [3, 10]: 8.30
pIC50 [4, 11]: 7.63
Compound: CN(C)C(=O)c1cc2cnc(Nc3ccc(OCCN4CCCC4)nc3)nc2n1C1CCCC1 [Compound A8, 7-cyclopentyl-N,N-dimethyl-2-((6-(2-(pyrrolidin-1-yl)ethoxy)pyridin-3-yl)amino)-7H-pyrrolo[2,3-d]pyrimidine-6-carboxamide]

pIC50 [3, 10]: 8.41
pIC50 [4, 11]: 7.92
Compound: CC(C)N1CCN(c2ccc(Nc3ncc4cc(C(=O)N(C)C)n(C5CCCC5)c4n3)cc2F)CC1 [Compound A11, 7-cyclopentyl-2-((3-fluoro-4-(4-isopropylpiperazin-1-yl)phenyl)amino)-N,N-dimethyl-7H-pyrrolo[2,3-d]pyrimidine-6-carboxamide]
